Like-named read-outs stand apart in the source and are kept apart here.
Assays:
TIM of T. cruzi (TcTIM) = molecular target: T1, TIM of T. cruzi (TcTIM) (Trypanosoma cruzi, UniProt P52270); assay: Inhibition of activity of recombinant wild type TcTIM after 2 h incubation; format: biochemical
T1 construct: made in house; host or cells: Escherichia coli
Experimental: (§1) TcTIM [19] and TIMs from T. brucei, L. mexicana, and Homo sapiens were expressed in Escherichia coli and purified as described in the indicated references. After purification, the enzymes dissolved in 100 mM triethanolamine, 10 mM EDTA and 1 mM dithiothreitol (pH 8) were precipitated with ammonium sulfate (75% saturation) and stored at 4°C. Before use, the enzymes were extensively dialyzed against 100 mM triethanolamine/10 mM EDTA (pH 7.4). Protein was determined from their absorbance at 280 nm. The ε M^−1 cm^−1 was 36440 for TcTIM, and 33460 for TbTIM and LmTIM.
(§2) In all the experiments, a solution of DTDA in dimethylsulfoxide (DMSO) was used. The final DMSO concentration in all experiments was 10% (v/v).
(§3) The indicated TIMs were incubated at pH 7.4 at a concentration of 5 µg per ml of 100 mM triethanolamine, 10 mM EDTA, 10% dimethyl sulfoxide (v/v), and DTDA at the concentrations indicated in the Results section for 2 hours at 36°C. At this time, an aliquot was withdrawn for assay of activity.
(§4) Activity was determined in the direction of glyceraldehyde 3-phosphate to dihydroxyacetone phosphate. The decrease in absorbance at 340 nm was followed in a Hewlett Packard spectrophotometer at 25°C. The reaction mixture (1 ml) contained 100 mM triethanolamine, 10 mM EDTA, 0.2 mM NADH, 1 mM glyceraldehyde 3-phosphate, and 0.9 units α-glycerolphosphate dehydrogenase (pH 7.4). The reaction was started by the addition of TIM, usually 5 ng. The average specific activity of the various preparations of TcTIM used in this work was 2900±200 µmol/min/mg.

rats = tested on: rats; design: method as in PMID 4078223; conditions: cited from earlier work
TcTIM C127A = molecular target: T2, TcTIM C127A (Trypanosoma cruzi, UniProt P52270, C127A); assay: Inhibition of activity of TcTIM C127A mutant; format: biochemical; conditions: 2 h, 36°C, 10% DMSO, read-out: IC50, concentration of DTDA that induces 50% inhibition
T2 construct: made in house
T2 sequence (P52270 whole entry C127A): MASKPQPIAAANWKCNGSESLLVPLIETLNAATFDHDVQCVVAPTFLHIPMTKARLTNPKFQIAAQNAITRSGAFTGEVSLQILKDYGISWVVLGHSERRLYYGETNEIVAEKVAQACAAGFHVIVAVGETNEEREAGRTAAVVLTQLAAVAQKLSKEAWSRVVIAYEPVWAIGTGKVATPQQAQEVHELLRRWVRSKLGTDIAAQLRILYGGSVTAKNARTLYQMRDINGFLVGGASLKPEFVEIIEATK
Experimental: as §2, §3, §4

[1] = molecular target: T3, TIM from H. sapiens (HTIM) (Homo sapiens, UniProt P60174); assay: Inhibition of activity of human TIM after 2 h incubation; format: biochemical
T3 construct: made in house; host or cells: Escherichia coli
T3 sequence (P60174 whole entry): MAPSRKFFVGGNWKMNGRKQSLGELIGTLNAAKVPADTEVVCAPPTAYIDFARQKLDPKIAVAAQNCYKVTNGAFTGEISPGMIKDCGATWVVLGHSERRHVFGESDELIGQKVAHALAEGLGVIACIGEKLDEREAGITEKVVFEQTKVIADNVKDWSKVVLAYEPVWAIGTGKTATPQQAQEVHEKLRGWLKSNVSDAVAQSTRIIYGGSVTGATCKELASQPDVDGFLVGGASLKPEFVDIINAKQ
Experimental: as §1, §2, §3, §4

E. coli JM103 cells = assay: Growth of intact E. coli (own TIM) in minimal media; format: cell-based, Escherichia coli; conditions: 30 µM, M9 medium, 10% DMSO, absorbance at 600 nm
Experimental: (§5) E. coli JM103 cells were used as control. E. coli devoid of their endogenous TIM termed VR101 [10] were kindly provided by Dr. Gloria Saab-Rincón; these cells have a kanamicin resistant cassette. […] The strains were grown at 37°C in solid Luria-Bertani medium that had been supplemented with 50 µg of kanamycin and 50 µg of ampicilin per ml. One colony was transferred to M9 medium that had 10% DMSO and 50 µg of each of the latter antibiotics per ml. Growth of the various cells was followed throughout time by measuring the absorbance of the culture at 600 nm.

hemoglobin = tested on: hemoglobin; design: method as in PMID 4078222; conditions: cited from earlier work
TbTIM V118C = TbTIM V118C (Trypanosoma brucei brucei, UniProt P04789, V117C); assay: Inhibition of activity of TbTIM V118C mutant; format: biochemical
Chain of TbTIM V118C (P04789 whole entry V117C): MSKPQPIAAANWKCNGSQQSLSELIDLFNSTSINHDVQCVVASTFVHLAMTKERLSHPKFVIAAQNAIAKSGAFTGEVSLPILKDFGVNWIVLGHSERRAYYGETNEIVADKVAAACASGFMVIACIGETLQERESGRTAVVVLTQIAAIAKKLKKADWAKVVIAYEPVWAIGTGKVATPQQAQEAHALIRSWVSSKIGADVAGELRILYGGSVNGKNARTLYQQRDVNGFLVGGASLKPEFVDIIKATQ
Experimental: as §2, §3, §4

TbTIM = molecular target: T4, TbTIM (Trypanosoma brucei brucei, UniProt P04789); assay: Inhibition of activity of TbTIM after 2 h incubation; format: biochemical
T4 construct: made in house; host or cells: Escherichia coli
T4 sequence (P04789 whole entry): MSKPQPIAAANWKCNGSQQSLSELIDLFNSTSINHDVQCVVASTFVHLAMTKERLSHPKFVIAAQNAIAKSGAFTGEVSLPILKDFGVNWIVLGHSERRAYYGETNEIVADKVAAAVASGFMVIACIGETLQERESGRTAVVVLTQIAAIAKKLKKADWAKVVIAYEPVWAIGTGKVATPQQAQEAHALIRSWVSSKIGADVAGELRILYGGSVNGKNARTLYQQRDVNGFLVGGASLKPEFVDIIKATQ
Experimental: as §1, §2, §3
as §4, with “The reaction was started by the addition of TIM, usually 5 ng. The average specific activity of the various preparations of TcTIM used in this work was 2900±200 µmol/min/mg.” left out

T. cruzi epimastigotes = assay: Culture of T. cruzi epimastigotes, cell number up to 72 hours; format: cell-based, Trypanosoma cruzi
Experimental: Where indicated in the Results section, the media was supplemented with the indicated concentrations of DTDA. The number of cells was recorded at various times for as long as 72 hours.

LmTIM = molecular target: T5, LmTIM (Leishmania mexicana, UniProt P48499); assay: Inhibition of activity of LmTIM after 2 h incubation; format: biochemical
T5 construct: made in house; host or cells: Escherichia coli
T5 sequence (P48499 whole entry): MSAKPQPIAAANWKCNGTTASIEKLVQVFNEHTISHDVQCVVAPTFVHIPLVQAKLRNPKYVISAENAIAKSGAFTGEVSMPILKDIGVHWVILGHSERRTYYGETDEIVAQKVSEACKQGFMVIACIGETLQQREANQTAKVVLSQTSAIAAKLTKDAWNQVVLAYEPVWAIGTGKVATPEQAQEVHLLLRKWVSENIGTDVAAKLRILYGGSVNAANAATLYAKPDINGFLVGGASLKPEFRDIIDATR
Experimental: as §1, §2, §3, §4

TcTIM C15A = molecular target: T6, TcTIM C15A (Trypanosoma cruzi, UniProt P52270, C15A); assay: Inhibition of activity of TcTIM C15A mutant; format: biochemical; conditions: 2 h, 36°C, 10% DMSO, read-out: IC50, concentration of DTDA that induces 50% inhibition
T6 construct: made in house
T6 sequence (P52270 whole entry C15A): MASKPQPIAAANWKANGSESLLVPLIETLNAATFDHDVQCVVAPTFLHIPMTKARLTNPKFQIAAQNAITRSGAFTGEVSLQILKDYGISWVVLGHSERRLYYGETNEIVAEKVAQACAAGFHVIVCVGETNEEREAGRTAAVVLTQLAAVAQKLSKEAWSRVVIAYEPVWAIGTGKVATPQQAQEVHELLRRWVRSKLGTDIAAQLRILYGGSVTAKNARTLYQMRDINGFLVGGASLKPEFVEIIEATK
Experimental: as §2, §3, §4

[2] = tested on: E. coli cells that had TcTIM instead of their own TIM; assay: Growth of E. coli devoid of endogenous TIM transformed with TcTIM; format: cell-based, Escherichia coli
Experimental: as §5

TcTIM C118V = molecular target: T7, TcTIM C118V (Trypanosoma cruzi, UniProt P52270, C118V); assay: Inhibition of activity of TcTIM C118V mutant; format: biochemical; conditions: 2 h, 36°C, 10% DMSO, read-out: IC50, concentration of DTDA that induces 50% inhibition
T7 construct: made in house
T7 sequence (P52270 whole entry C118V): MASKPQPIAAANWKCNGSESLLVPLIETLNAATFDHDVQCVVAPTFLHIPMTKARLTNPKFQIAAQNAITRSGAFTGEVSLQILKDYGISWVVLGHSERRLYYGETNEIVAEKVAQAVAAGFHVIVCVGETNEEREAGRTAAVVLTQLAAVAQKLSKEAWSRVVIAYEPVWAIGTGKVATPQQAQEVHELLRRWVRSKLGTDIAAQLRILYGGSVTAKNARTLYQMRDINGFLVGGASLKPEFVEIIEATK
Experimental: as §2, §3, §4

TcTIM C40A = molecular target: T8, TcTIM C40A (Trypanosoma cruzi, UniProt P52270, C40A); assay: Inhibition of activity of TcTIM C40A mutant; format: biochemical; conditions: half-maximal inhibition of the initial phase (biphasic response), read-out: IC50, concentration of DTDA that induces 50% inhibition
T8 construct: made in house
T8 sequence (P52270 whole entry C40A): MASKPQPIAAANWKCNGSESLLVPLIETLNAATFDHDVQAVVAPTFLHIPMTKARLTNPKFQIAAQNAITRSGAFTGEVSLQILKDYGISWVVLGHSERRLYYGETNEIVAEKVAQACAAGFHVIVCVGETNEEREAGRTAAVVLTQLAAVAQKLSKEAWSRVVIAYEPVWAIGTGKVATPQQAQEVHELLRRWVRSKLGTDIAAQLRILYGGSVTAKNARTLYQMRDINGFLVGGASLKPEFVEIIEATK
Experimental: as §2, §3, §4

rodents = tested on: rodents; design: method as in PMID 7265299; conditions: cited from earlier work
[3] = concentrations as high as 200 µM

T1 sequence (P52270 whole entry): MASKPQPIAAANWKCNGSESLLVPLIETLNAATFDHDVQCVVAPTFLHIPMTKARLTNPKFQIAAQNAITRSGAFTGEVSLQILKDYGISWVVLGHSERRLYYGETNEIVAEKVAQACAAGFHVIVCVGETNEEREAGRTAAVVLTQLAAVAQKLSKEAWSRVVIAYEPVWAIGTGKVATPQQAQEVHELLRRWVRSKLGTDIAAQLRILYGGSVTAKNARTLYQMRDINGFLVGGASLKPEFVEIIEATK

## Nc1ccccc1SCSc1ccccc1N [2,2′-(methylenebisthioaniline)]
TIM of T. cruzi (TcTIM); read-out: concentration required to inhibit the activity of TcTIM by 50%
  IC50: 50000 nM

## Nc1ccc(SSc2ccc(N)cc2)cc1 [4,4′-diamino disulfide]
rats
  toxic effect on administration to rats: hematological alterations

## Nc1ccccc1SSc1ccccc1N [DTDA, 2,2′-dithiodianiline]
TcTIM C127A
  IC50: 57 ± 8 nM
[1]; 10 µM, 2 h, 36°C
  effect on the activity of HTIM: did not affect
[1]; 2 h, 36°C, 10% DMSO, read-out: concentration for fifty percent inhibition of HTIM activity
  IC50: 98000 nM
[1]; ratio of concentrations for 50% inhibition, HTIM vs TcTIM
  selectivity for TcTIM in reference to HTIM: ~400 times
E. coli JM103 cells
  effect on growth of E. coli cells that worked with their own TIM: had no effect
TIM of T. cruzi (TcTIM); 2 h, 36°C, 10% DMSO, read-out: concentration that induced 50% inhibition of the activity of TcTIM
  IC50: 260 nM
TIM of T. cruzi (TcTIM); TcTIM wild, 5 µg/ml enzyme, 2 h, 36°C, 10% DMSO, read-out: IC50, concentration of DTDA that induces 50% inhibition
  IC50: 258 ± 35 nM
hemoglobin
  effect on hemoglobin: irreversible oxidation of hemoglobin
TbTIM V118C
  IC50: > 200000 nM
TbTIM V118C; 200 µM
  sensitivity of TbTIM V118C mutant activity: insensitive
TbTIM; 10 µM, 2 h, 36°C
  effect on the activity of TbTIM: did not affect
TbTIM; [3]
  sensitivity of TbTIM activity: completely insensitive
T. cruzi epimastigotes; 4 µM, up to 72 hours
  effect on growth of T. cruzi epimastigotes: inhibition of growth
T. cruzi epimastigotes; 10 µM and 15 µM
  effect on survival of T. cruzi parasites in cell cultures: causes death of parasites
T. cruzi epimastigotes; 4–8 µM
  effect on growth of T. cruzi epimastigotes: significant inhibition of the growth
T. cruzi epimastigotes; concentrations higher than 8 µM, up to 72 hours
  effect on the number of T. cruzi epimastigotes in culture: significant decrease in the number of cells
LmTIM; 10 µM, 2 h, 36°C
  effect on the activity of LmTIM: did not affect
LmTIM; LmTIM, 2 h, 36°C, 10% DMSO, read-out: IC50, concentration of DTDA that induces 50% inhibition
  IC50: > 200000 nM
LmTIM; [3]
  sensitivity of LmTIM activity: completely insensitive
TcTIM C15A
  IC50: 346 ± 32 nM
[2]; 30 µM, M9 medium, 10% DMSO, absorbance at 600 nm
  effect on growth of E. coli cells that relied on the function of TcTIM: effectively prevented
[2]; concentrations as low as 4 µM
  effect on the lag that precedes logarithmic growth of TcTIM transformed E. coli: important increase in the lag
[2]; inferred from the effect on TcTIM transformed E. coli
  permeability of biological membranes to the compound: permeable
TcTIM C118V
  IC50: 208 ± 37 nM
TcTIM C40A
  IC50: 1530 ± 450 nM

## diaminodiphenyldisulfide
rodents
  toxic effect on the kidney: atrophy and hyperplasia in the kidney
  toxic effect on the liver: necrotic changes in the liver
